Laboratory results: US20130072519A1, “2-PHENYL BENZOYLAMIDES” (priority 2010, published 2013)
pIC50: −log10 of the molar value.

The compounds below were run on Apolipoprotein B Secretion from HepG2 Cells (assay: Inhibition of Apolipoprotein B secretion from HepG2 cells (ELISA)). Conditions: HepG2 cells, 22-24 hours incubation, ApoB ELISA; Low/High IC50 columns give the 95% confidence interval.
Type: cell-based, human
Procedure: Inhibition of Apolipoprotein B Secretion from HepG2 Cells
To assess the inhibitory effect of the compounds of the invention on ApoB production, an endogenously ApoB producing cell line, HEPG2, was implemented in an in vitro ELISA assay. HEPG2 cells are plated at 25,000 per well (96-well plates) in media consisting of DMEM Low Glucose, 1% NEAA (non-essential amino acids), 10% FBS (heat inactivated), 1% L-Glutamine, and 1% Antimycotic-Antibiotic and incubated for 16-18 hours at 37° C. and 5% CO2. After the 16-18 hour incubation, a 12 point half-log serial of the inhibitor (1000 nM-0.003 nM) is prepared, and 1.5 ul of the serial dilution is added to HEPG2 cells, which have had their media decanted and replaced with 148 ul of fresh media, and the cells are incubated for 22-24 hours at 37° C. and 5% CO2. Two and a half hours before the 22-24 hour incubation period is completed, Nunc Maxisorp plates are coated with 100 ul of primary (coating) antibody (goat anti-apoB), diluting to a ratio of 1:1000 in 1% Carbonate-Bicarbonate Coating Buffer and incubated for at least 2 hours at room temperature before the primary antibody is decanted and the wells of the microplate are washed with 200 ul of washing buffer (1% PBS, 0.05% Tween20). Next, 200 ul of blocking buffer (1% PBS, 1:500 Western Block, 5 mg/ml BSA) is added to the wells of the microplate, and incubated for at least 30 mins. Following the 22-24 hours incubation period, cell plates are removed from the incubator, 20 ul of supernatant from each well is aspirated, added to a corresponding well in 96 well plate containing 140 ul of diluent (1:2-Blocking Buffer: Washing Buffer), and mixed. Then, 120 ul is aspirated from the dilutent-supernatant plate, added to the blocked Nunc Maxisorp 96 well plate, and placed at room temperature on a shaker to mix for at least 2 hours. The secondary (capture) antibody (mouse anti-human apoB) is prepared at a ratio of 1:4000, and the detection antibody (goat anti-mouse HRP conjugated antibody) at a ratio of 1:10,000. For each antibody, 100 ul is added to each well of the microplate and the microplate is incubated at room temperature for 2 hours, washing the microplates between each antibody addition. Colorimetric development is achieved by adding 50 ul of TMB reagent to each well, incubating for 5 mins at room temperature, then adding 50 ul of 2M Sulfuric Acid to each well. Absorbance at 450 nm is monitored in an Envision plate reader to measure the amount of ApoB formed.
Results reported as average IC50, low and high IC50 range (95% confidence interval).

Row | pIC50 | Structure (SMILES)
1 | 8.00 | CCOC(=O)C1(COC(=O)Cc2ccc(NC(=O)c3ccccc3-c3ccc(C(F)(F)F)cc3)c(C(=O)N(C)C)c2)OC(=O)c2ccccc21 (centres unmarked) [Example 31]
2 | 7.34 | CCOC(=O)C1(COC(=O)Cc2ccc(NC(=O)c3ccccc3-c3ccc(C(F)(F)F)cc3)c(C(=O)N(C)C)c2)OC(=O)c2ccccc21 (centres unmarked) [Example 32]
3 | 8.26 | COC(=O)C1(COC(=O)Cc2ccc(NC(=O)c3ccccc3-c3ccc(C(F)(F)F)cc3)c(C(=O)N(C)C)c2)CCc2ccccc21 (centres unmarked) [Example 34]
4 | 9.34 | CCOC(=O)C1(COC(=O)Cc2ccc(NC(=O)c3ccccc3-c3ccc(C(F)(F)F)cc3)c(C(=O)N(C)C)c2)CCc2ccccc21 (centres unmarked) [Example 35]
5 | 8.34 | CCOC(=O)C1(COC(=O)Cc2ccc(NC(=O)c3ccccc3-c3ccc(C(F)(F)F)cc3)c(C(=O)N(C)C)c2)CCc2ccccc21 (centres unmarked) [Example 36]
6 | 7.70 | CCOC(=O)C1(COC(=O)Cc2ccc(NC(=O)c3ccccc3-c3ccc(C(F)(F)F)cc3)c(C(=O)N(C)C)c2)CCc2cccnc21 (centres unmarked) [Example 38]
7 | 8.63 | CCOC(=O)C1(COC(=O)Cc2ccc(NC(=O)c3ccccc3-c3ccc(C(F)(F)F)cc3)c(C(=O)N(C)C)c2)CCc2cccnc21 (centres unmarked) [Example 39]

Row | Structure (SMILES) | pIC50
8 | CCOC(=O)C1(COC(=O)Cc2ccc(NC(=O)c3cccc(C)c3-c3ccc(C(F)(F)F)cc3)c(C(=O)N(C)C)c2)c2ncccc2C(=O)N1CC (centres unmarked) [Example 47, Ethyl 7-({2-[3-(Dimethylcarbamoyl)-4-({[6-methyl-4′-(trifluoromethyl)biphenyl-2-yl]carbonyl}amino)phenyl]acetoxy}methyl)-6-ethyl-5-oxo-6,7-dihydro-5H-pyrrolo[3,4-b]pyridine-7-carboxylate] | 8.12
9 | CCOC(=O)C1(COC(=O)Cc2ccc(NC(=O)c3cccc(C)c3-c3ccc(C(F)(F)F)cc3)c(C(=O)N(C)C)c2)c2ncccc2C(=O)N1CC (centres unmarked) [Example 48, Ethyl 7-({2-[3-(Dimethylcarbamoyl)-4-({[6-methyl-4′-(trifluoromethyl)biphenyl-2-yl]carbonyl}amino)phenyl]acetoxy}methyl)-6-ethyl-5-oxo-6,7-dihydro-5H-pyrrolo[3,4-b]pyridine-7-carboxylate] | 9.69

Same assay, conditions: Homo sapiens, HepG2, HepG2 cells, 22-24 hours incubation, ApoB ELISA; Low/High IC50 columns give the 95% confidence interval

Row | Structure (SMILES) | pIC50
10 | COC(=O)C1(COC(=O)Cc2ccc(NC(=O)c3ccccc3-c3ccc(C(F)(F)F)cc3)c(C(=O)N(C)C)c2)CCc2ccccc21 (centres unmarked) [Example 33] | 8.19
11 | CCOC(=O)C1(COC(=O)Cc2ccc(NC(=O)c3ccccc3-c3ccc(C(F)(F)F)cc3)c(C)c2)OC(=O)c2ccccc21 (centres unmarked) [Example 40] | 6.80
12 | CCOC(=O)C1(COC(=O)Cc2ccc(NC(=O)c3cccc(C)c3-c3ccc(OC(C)C)cc3)c(C(=O)N(C)C)c2)c2ccccc2C(=O)N1C (centres unmarked) [Example 51, ethyl 1-({2-[3-(dimethylcarbamoyl)-4-{[(4′-isopropoxy-6-methylbiphenyl-2-yl)carbonyl]amino}phenyl]acetoxy}methyl)-2-methyl-3-oxoisoindoline-1-carboxylate] | 9.80
13 | CCOC(=O)C1(COC(=O)Cc2ccc(NC(=O)c3cccc(C)c3-c3ccc(C(C)C)cc3)c(C(=O)N(C)C)c2)c2ccccc2C(=O)N1C (centres unmarked) [Example 53] | 9.62
14 | CCOC(=O)C1(COC(=O)Cc2ccc(NC(=O)c3ccccc3-c3ccc(OC(C)C)cc3)c(C(=O)N(C)C)c2)c2ccccc2C(=O)N1C (centres unmarked) [Example 54, ethyl 1-({2-[3-(dimethylcarbamoyl)-4-{[(4′-isopropoxybiphenyl-2-yl)carbonyl]amino}phenyl]acetoxy}methyl)-2-methyl-3-oxoisoindoline-1-carboxylate] | 9.91
15 | CCOC(=O)C1(COC(=O)Cc2ccc(NC(=O)c3ccc(C(F)(F)F)cc3-c3ccc(C(F)(F)F)cc3)c(C(=O)N(C)C)c2)c2ccccc2C(=O)N1C (centres unmarked) [Example 55, ethyll-({2-[4-({[4′,5-bis(trifluoromethyl)biphenyl-2-yl]carbonyl}amino)-3-(dimethylcarbamoyl)phenyl]acetoxy}methyl)-2-methyl-3-oxoisoindoline-1-carboxylate] | 9.81
16 | CCOC(=O)C1(COC(=O)Cc2ccc(NC(=O)c3cccc(C)c3-c3ccc(OC(C)C)cc3)c(C(=O)N(C)C)c2)CCc2cccnc21 (centres unmarked) [Example 57, ethyl 7-({2-[3-(dimethylcarbamoyl)-4-{[(4′-isopropoxy-6-methylbiphenyl-2-yl)carbonyl]amino}phenyl]acetoxy}methyl)-6,7-dihydro-5H-cyclopenta[b]pyridine-7-carboxylate] | 8.86
17 | CCOC(=O)C1(COC(=O)Cc2ccc(NC(=O)c3ccc(C(F)(F)F)cc3-c3ccc(C(F)(F)F)cc3)c(C(=O)N(C)C)c2)CCc2cccnc21 (centres unmarked) [Example 58, ethyl 7-({2-[4-({[4′,5-bis(trifluoromethyl)biphenyl-2-yl]carbonyl}amino)-3-(dimethylcarbamoyl)phenyl]acetoxy}methyl)-6,7-dihydro-5H-cyclopenta[b]pyridine-7-carboxylate] | 8.14
18 | CCOC(=O)[C@]1(COC(=O)Cc2ccc(NC(=O)c3cccc(C)c3-c3ccc(C(F)(F)F)cc3)c(C(=O)N3CCCCC3)c2)c2ccccc2C(=O)N1C [Example 62, ethyl (1R)-2-methyl-1-({2-[4-({[6-methyl-4′-(trifluoromethyl)biphenyl-2-yl]carbonyl}amino)-3-(piperidin-1-ylcarbonyl)phenyl]acetoxy}methyl)-3-oxoisoindoline-1-carboxylate] | 8.93
19 | CCOC(=O)[C@]1(COC(=O)Cc2ccc(NC(=O)c3cccc(OC)c3-c3ccc(OC(C)C)cc3)c(C(=O)N(C)C)c2)c2ccccc2C(=O)N1C [Example 63, ethyl (1R)-1-({2-[3-(dimethylcarbamoyl)-4-{[(4′-isopropoxy-6-methoxybiphenyl-2-yl)carbonyl]amino}phenyl]acetoxy}methyl)-2-methyl-3-oxoisoindoline-1-carboxylate] | 9.92
20 | CCOC(=O)[C@]1(COC(=O)Cc2ccc(NC(=O)c3cccc(OC)c3-c3ccccc3)c(C(=O)N(C)C)c2)c2ccccc2C(=O)N1C [Example 64, ethyl (1R)-1-({2-[3-(dimethylcarbamoyl)-4-{[(6-methoxybiphenyl-2-yl)carbonyl]amino}phenyl]acetoxy}methyl)-2-methyl-3-oxoisoindoline-1-carboxylate] | 9.27
21 | CCOC(=O)[C@]1(COC(=O)Cc2ccc(NC(=O)c3ccccc3-c3ccc(C(C)(C)C)cc3)c(C(=O)N(C)C)c2)c2ccccc2C(=O)N1C [Example 66, ethyl (1R)-1-({2-[4-{[(4′-tert-butylbiphenyl-2-yl)carbonyl]amino}-3-(dimethylcarbamoyl)phenyl]acetoxy}methyl)-2-methyl-3-oxoisoindoline-1-carboxylate] | 9.69
22 | CCOC(=O)[C@]1(COC(=O)Cc2ccc(NC(=O)c3cccc(C)c3-c3ccc(C(C)(C)C)cc3)c(C(=O)N(C)C)c2)c2ccccc2C(=O)N1C [Example 67, ethyl (1R)-1-({2-[4-{[(4′-tert-butyl-6-methylbiphenyl-2-yl)carbonyl]amino}-3-(dimethylcarbamoyl)phenyl]acetoxy}methyl)-2-methyl-3-oxoisoindoline-1-carboxylate] | 9.61
23 | CCOC(=O)[C@]1(COC(=O)Cc2ccc(NC(=O)c3ccc(C)cc3-c3ccc(C(C)(C)C)cc3)c(C(=O)N(C)C)c2)c2ccccc2C(=O)N1C [Example 68, ethyl (1R)-1-({2-[4-{[(4′-tert-butyl-5-methylbiphenyl-2-yl)carbonyl]amino}-3-(dimethylcarbamoyl)phenyl]acetoxy}methyl)-2-methyl-3-oxoisoindoline-1-carboxylate] | 9.75
